# In the supplement of paper PMC10307832:
# Legend:
# Test in all cases: relative viability (nuclei count vs DMSO), 5 days (fraction); higher = more cells survive
# [1] = compound: CC1=CC=C(C=C1)C(=O)CN2C3=C(CCCC3)SC2=N [Pifithrin_alpha] + NC(=O)Nc1cc(-c2cccc(F)c2)sc1C(=O)N[C@H]1CCCNC1 [AZD7762] (partner 0.2 µM)
# Procedure, shortened: (§1)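 Lung cancer cell lines, seeded in 1536-well plates, were treated the following day by pin tool with a single drug or with five library-drug doses (not always all listed) in √10 steps on top of a fixed anchor-drug dose. Cells were fixed and nuclei stained in one step after 5 days, and nuclei were counted. Relative viability is the nuclei count for treated wells divided by that for vehicle wells, reported as medians of duplicate plates.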
# [2] = compound: Nc1nc(Nc2ccc3c(c2)CC[C@@H](N2CCCC2)CC3)nn1-c1cc2c(nn1)-c1ccccc1CCC2 [Bemcentinib] + CC(=O)c1c(C)c2cnc(Nc3ccc(N4CCNCC4)cn3)nc2n(C2CCCC2)c1=O [Palbociclib] (partner 0.5 µM)
# Procedure, shortened: as §1
# [3] = compound: CC1=CC=C(C=C1)C(=O)CN2C3=C(CCCC3)SC2=N [Pifithrin_alpha] + CC1(C)CCC(c2ccc(Cl)cc2)=C(CN2CCN(c3ccc(C(=O)NS(=O)(=O)c4ccc(N[C@H](CCN5CCOCC5)CSc5ccccc5)c(S(=O)(=O)C(F)(F)F)c4)cc3)CC2)C1 [Navitoclax] (partner 0.5 µM)
# Procedure, shortened: as §1
# [4] = compound: CNC(=O)c1ccccc1Sc1ccc2c(/C=C/c3ccccn3)n[nH]c2c1 [Axitinib] + CC(=O)c1c(C)c2cnc(Nc3ccc(N4CCNCC4)cn3)nc2n(C2CCCC2)c1=O [Palbociclib] (partner 0.5 µM)
# Procedure, shortened: as §1
Cell Line,relative viability ([1]; first compound 1 µM),relative viability ([1]; first compound 3.162 µM),relative viability ([1]; first compound 10 µM),relative viability ([1]; first compound 31.62 µM),relative viability ([1]; first compound 100 µM),relative viability ([2]; first compound 0.04 µM),relative viability ([2]; first compound 0.1265 µM),relative viability ([2]; first compound 0.4 µM),relative viability ([2]; first compound 1.265 µM),relative viability ([2]; first compound 4 µM),relative viability ([3]; first compound 1 µM),relative viability ([3]; first compound 3.162 µM),relative viability ([3]; first compound 10 µM),relative viability ([3]; first compound 31.62 µM),relative viability ([3]; first compound 100 µM),relative viability ([4]; first compound 0.005 µM),relative viability ([4]; first compound 0.01581 µM),relative viability ([4]; first compound 0.05 µM),relative viability ([4]; first compound 0.1581 µM),relative viability ([4]; first compound 0.5 µM)
NCI-H2085,1,0.973,0.881,0.665,0.762,0.456,0.449,0.44,0.46,0.47,1.06,1.22,1.08,0.876,1.04,0.495,0.482,0.454,0.487,0.452
NCI-H1395,,0.385,0.397,,0.361,,0.621,0.645,0.64,0.631,,1.15,1.34,0.604,1.31,0.594,0.509,0.507,0.579,0.711
NCI-H2405,,0.654,0.651,0.579,0.615,0.555,0.549,0.528,0.59,0.583,,0.81,0.813,0.635,0.689,0.505,0.524,0.542,0.517,0.537
EMC-BAC-2,1.09,1.09,0.954,0.82,1.04,0.519,0.556,0.507,0.513,0.519,1.22,1.29,1.17,0.933,1.31,0.522,0.562,0.49,0.508,0.533
BEN,0.608,0.753,0.722,0.533,0.656,0.488,0.498,0.464,0.432,0.514,0.0519,0.0641,0.0597,0.0612,0.0656,0.474,0.433,0.459,0.518,0.515
